pIC50: −log10 of the molar value.
Experiments:
[1] = target: T1, Apolipoprotein L1 (Homo sapiens, UniProt O14791); test: Inhibition of wild type APOL1 containing G0 in human U2OS cells incubated for 80 mins by thallium flux based FLIPR assay; assay type: cell-based
T1 sequence (O14791 whole entry): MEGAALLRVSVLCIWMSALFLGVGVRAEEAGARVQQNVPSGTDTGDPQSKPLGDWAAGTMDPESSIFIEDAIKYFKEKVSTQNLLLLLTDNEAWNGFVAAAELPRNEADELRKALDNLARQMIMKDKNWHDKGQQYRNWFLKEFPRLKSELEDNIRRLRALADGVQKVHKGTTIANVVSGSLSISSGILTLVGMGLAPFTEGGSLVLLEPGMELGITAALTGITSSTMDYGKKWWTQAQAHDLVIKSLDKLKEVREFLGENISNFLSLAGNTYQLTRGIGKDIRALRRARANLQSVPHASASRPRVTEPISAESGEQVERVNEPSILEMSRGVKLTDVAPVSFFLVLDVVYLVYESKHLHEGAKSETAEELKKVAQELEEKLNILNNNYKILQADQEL

[2] = Inhibition of APOL1 isoform G2 variant in human U2OS cells incubated for 80 mins by thallium flux based FLIPR assay; assay type: cell-based

Row | SMILES | pIC50 [1] | pIC50 [2]
1 | O=C(CCc1cc(-c2c(F)cc(F)cc2Cl)[nH]c1-c1ccc(Cl)cc1)N[C@@H]1C(=O)NC[C@H]1O | 9.30 | 9.10
2 | O=C(CCc1cc(C2(C(F)(F)F)CC2)[nH]c1-c1ccc(C(F)(F)F)cc1)N[C@@H]1C(=O)NC[C@H]1O | 8.60 | 8.30
3 | O=C(CCc1cc(-c2c(F)cc(F)cc2F)[nH]c1-c1ccc(Cl)cc1)N[C@@H]1C(=O)NC[C@H]1O | 8.50 | 8.40
4 | CC(C)(C)c1cc(CCC(=O)N[C@@H]2C(=O)NC[C@H]2O)c(-c2ccc(C(F)(F)F)cc2)[nH]1 | 8.80 | 8.30
5 | O=C(CCc1cc(C2(C(F)(F)F)CC2)[nH]c1-c1ccc(Cl)cc1)N[C@@H]1C(=O)NC[C@H]1O | 8.60 | 8.40
6 | O=C(CCc1c(-c2ccc(Cl)cc2)[nH]c(C2(C(F)(F)F)CC2)c1F)N[C@@H]1C(=O)NC[C@H]1O | 8.70 | 8.30
